In ChEMBL document CHEMBL1155679, “New xenicane diterpenoids from the gorgonian Acalycigorgia inermis” (2000):
Values after ≈ are worked out from the molar mass of the structure shown.

System: K562
Assay: Cytotoxicity against human K562 cells
Format: functional
Details: read-out: LC50 (the source's name)

C=C=CCC[C@@H]1C(=O)OC[C@H]2C(=C)CC[C@@H]3O[C@@]3(C)CC[C@H]12 [ACALYCIXENIOLIDE C]
CC50: 1.6 µg/mL (≈ 5.29 µM)

C=C=CC/C=C1/C(=O)OC[C@H]2C(=C)CC[C@@H]3O[C@@]3(C)CC[C@H]12 [ACALYCIXENIOLIDE D]
CC50: 52 µg/mL (≈ 173 µM)

C=C=CCC(OC(C)=O)C1=CO[C@H](OC(C)=O)[C@H]2C(=C)CC[C@@H]3O[C@@]3(C)CC[C@H]12 (some centres undefined) [ACALYCIXENIOLIDE E]
CC50: 4.7 µg/mL (≈ 11.7 µM)

C=C1CC[C@@H]2O[C@@]2(C)CC[C@@H]2[C@H](CCC=C(C)C)C(=O)OC[C@@H]12 [ACALYCIXENIOLIDE F]
CC50: 0.2 µg/mL (≈ 0.628 µM)
